Experimental findings from US4289748A, “Ultrasensitive enzymatic radioimmunoassay method” (United States of America, priority 1979, dated 1981) are described below.

Experiment [1] deals with alkaline phosphatase-IgG conjugate (Bos taurus, UniProt P19111). As to the kind of experiment: Effect of reaction products on the alkaline phosphatase-IgG conjugate assay (tritium-AMP hydrolysis). The class given is biochemical, calf. To be noted: 100 picamole tritium-AMP, 10 mM buffer pH 9.0, 37° C. The protocol: Triplicates of the assay mixture containing 100 picamole of tritium-AMP and 10^-8 milligrams of enzyme conjugate in 0.1 milliliter of 10 mM buffer with a pH of 9.0 were incubated at 37° C. from 0 to 48 hours. Aliquots of 50 microliters of the reaction mixtures were withdrawn for determination of enzyme activity at 0.5, 1.5, 4.5, 24 and 48 hours. The enzyme activity was nearly linear for 90 minutes with approximately 2% of the tritium-AMP hydrolyzed to tritium-adenosine and phosphate. At 24 and 48 hours, the enzyme reaction became slower. Since the tritium-AMP radioindicator was still in excess, the reduction of enzyme activity could be secondary to enzyme degradation and/or product inhibition. To determine the effects of reaction products on the assay, either phosphate (2 or 20 picamoles) or adenosine (20 picamoles) was added to the assay mixtures. 2 and 20 picamole phosphate inhibited alkaline phosphatase activity by 8% and 90% respectively. […] The variation in the triplicate samples was small. For reaction times of less than 5 hours, the variation in either duplicate or triplicate samples was less than 10% of the mean value.

In experiment [2] the target is alkaline phosphatase-IgG (goat anti-rabbit) conjugate (Bos taurus, UniProt P19111). The experiment in a line: Enzyme kinetics of alkaline phosphatase-IgG conjugate with varying AMP concentrations, double reciprocal plot. The class given is biochemical, calf. To be noted: 10 mM diethanolamine buffer pH 9.8, 37° C., 30 minutes, conjugate 2×10^-8 mg/ml; double reciprocal plot (FIG. 4b). As to the method: To determine the enzyme kinetics of alkaline phosphatase-IgG (goat anti-rabbit) conjugate, varying concentrations of adenosine-5'-monophosphate were added to a 10^6 dilution of the enzyme-IgG conjugate. […] Alkaline phosphatase conjugate (2×10^-8 milligrams per milliliter) was added to 10 mM diethanolamine buffer having a pH of 9.8, containing various concentrations of AMP. The reaction mixtures were incubated at 37° C. for 30 minutes. The tritium-labelled adenosine released was determined by column chromatography utilizing DEAE Sephadex by applying an 0.05 milliliter aliquot of the reaction mixture to a column packed with 1.5 milliliters DEAE Sephadex A-25 followed by elutation with a total of 4.5 milliliters of 0.01 M diethanolamine buffer with a pH of 9.8, containing 0.1 mM unlabelled adenosine in two fractions. 20 ml of liquid scintillator, Aquasol®, was added to each fraction and the tritium-labelled adenosine was measured in a liquid scintillation counter. The Km was calculated to be approximately 4 mM by a double reciprocal plot of the Michalis-Menton equation which is shown in FIG. 4b. […] The counting of the actual scintillation counter was adjusted in accordance with standard techniques to yield DPM, disintegrations per minute. Varying concentrations of diethanolomine buffer and MgCl2 were tested. […]
alkaline phosphatase-IgG (goat anti-rabbit) conjugate, sequence (P19111 20-506 limits assumed): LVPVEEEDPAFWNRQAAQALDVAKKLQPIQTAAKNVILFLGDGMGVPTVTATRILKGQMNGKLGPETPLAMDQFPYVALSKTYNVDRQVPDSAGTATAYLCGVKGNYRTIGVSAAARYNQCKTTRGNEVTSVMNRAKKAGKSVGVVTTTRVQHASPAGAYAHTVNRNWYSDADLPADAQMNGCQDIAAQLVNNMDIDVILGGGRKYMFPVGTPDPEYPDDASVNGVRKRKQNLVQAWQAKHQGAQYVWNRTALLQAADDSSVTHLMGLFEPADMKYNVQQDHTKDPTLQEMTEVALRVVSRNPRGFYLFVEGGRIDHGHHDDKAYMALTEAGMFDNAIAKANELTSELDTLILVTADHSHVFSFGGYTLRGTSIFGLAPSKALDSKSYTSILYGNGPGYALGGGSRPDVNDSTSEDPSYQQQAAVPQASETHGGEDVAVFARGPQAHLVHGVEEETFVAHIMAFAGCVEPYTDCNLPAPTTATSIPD

alkaline phosphatase-IgG conjugate, sequence (P19111 20-506 limits assumed): as above

As for phosphate, the results for the “inhibition of alkaline phosphatase activity” value in experiment [1] (2 picamole phosphate added to 0.1 ml assay mixture) and in experiment [1] (20 picamole phosphate added to 0.1 ml assay mixture) were 8% and 90%, respectively. Regarding `Nc1ncnc2c1ncn2[C@@H]1O[C@H](CO)[C@@H](O)[C@H]1O` [adenosine], the “effect on the activity of the phosphatase” value in experiment [1] (20 picamole adenosine added to 0.1 ml assay mixture) is “no detectable effect”.

A word on the Km: it is the concentration of substrate that gives half-maximal velocity. With `Nc1ncnc2c1ncn2[C@@H]1O[C@H](COP(=O)(O)O)[C@@H](O)[C@H]1O` [adenosine-5'-monophosphate], the Km in experiment [2] was about 4 mM.
